In the experiment the target is T1, IRAK4 (Homo sapiens, UniProt Q9NWZ3).
T1 construct: endogenous in cells; host or cells: Karpas299
T1 sequence (Q9NWZ3 1-460): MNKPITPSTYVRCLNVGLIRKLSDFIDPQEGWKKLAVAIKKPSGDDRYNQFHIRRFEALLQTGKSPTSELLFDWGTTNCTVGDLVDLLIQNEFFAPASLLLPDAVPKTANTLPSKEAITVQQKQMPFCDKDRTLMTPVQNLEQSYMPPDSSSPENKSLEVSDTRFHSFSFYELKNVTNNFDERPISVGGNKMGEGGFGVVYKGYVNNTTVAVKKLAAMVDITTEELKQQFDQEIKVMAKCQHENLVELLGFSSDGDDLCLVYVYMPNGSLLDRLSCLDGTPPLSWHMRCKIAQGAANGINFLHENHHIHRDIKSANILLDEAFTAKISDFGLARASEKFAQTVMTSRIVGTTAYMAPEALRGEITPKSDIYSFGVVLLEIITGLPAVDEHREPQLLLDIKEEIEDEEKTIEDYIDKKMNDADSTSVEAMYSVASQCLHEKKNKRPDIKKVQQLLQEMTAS
As to the kind of experiment: IRAK4 Degradation Assay (Karpas299, HTRF/TR-FRET). The experiment is classed as cell-based. Conditions: Karpas-299 cells; for Dmax: maximum percentage of degradation. Put shortly:
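Compound potency as DC50 (IC50) came from four-parameter fits of percent IRAK4 degradation. IRAK4 was measured by HTRF (665/620 nm) in lysates of Karpas299 cells seeded at 0.2 million per well. Cells had been treated with compound dilutions for 5 or 24 h.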
In general terms: In TR-FRET formats the signal depends on donor and acceptor labels being close together.

The mark [1] stands for this setting: 24 h treatment, read-out: IRAK4 in Karpas-299 (24 h) Dmax (%).
The mark [2] stands for this setting: 24 h treatment, read-out: IRAK4 in Karpas-299 (24 h) DC50.
Setting [3] is: 5 h treatment, read-out: IRAK4 in Karpas-299 (5 h) Dmax (%).
Where [4] appears, read: 5 h treatment, read-out: IRAK4 in Karpas-299 (5 h) DC50.

Like-named read-outs stand apart in the source and are kept apart here.

As for `CC(C)c1cc(-c2nc(C(=O)Nc3cn([C@H]4CC[C@H](N5CCN(C(=O)[C@@H]6CCN(c7cc(F)c([C@H]8CCC(=O)NC8=O)c(F)c7)C6)CC5)CC4)nc3C(F)F)co2)ccn1` [Example 85, N-(3-(difluoromethyl)-1-((1R,4r)-4-(4-((R)-1-(4-((R)-2,6-dioxopiperidin-3-yl)-3,5-difluorophenyl)pyrrolidine-3-carbonyl)piperazin-1-yl)cyclohexyl)-1H-pyrazol-4-yl)-2-(2-isopropylpyridin-4-yl)oxazole-4-carboxamide], under setting [1], the Dmax is 95%. For the same compound, under setting [2], the 50% degradation concentration (DC50) was determined as 5.2 nM.

With `CC(C)c1cc(-c2nc(C(=O)Nc3cn([C@H]4CC[C@H](N5CCN(C(=O)C6CN(c7cc(F)c([C@H]8CCC(=O)NC8=O)c(F)c7)C6)CC5)CC4)nc3C(F)F)co2)ccn1` [Example 86, N-(3-(difluoromethyl)-1-((1r,4r)-4-(4-(1-(4-((R)-2,6-dioxopiperidin-3-yl)-3,5-difluorophenyl)azetidine-3-carbonyl)piperazin-1-yl)cyclohexyl)-1H-pyrazol-4-yl)-2-(2-isopropylpyridin-4-yl)oxazole-4-carboxamide], the Dmax under setting [1] was 94%. For the same compound, the half-maximal degradation concentration (DC50) under setting [2] worked out at 8.9 nM.

Regarding `O=C1CC[C@H](c2c(F)cc(N3CC(C(=O)N4CCN(c5ccc(-n6cc(NC(=O)c7coc(-c8ccnc(NCC9CC9)c8)n7)c(C(F)F)n6)cn5)CC4)C3)cc2F)C(=O)N1` [Example 90], the Dmax under setting [1] is 96%. Under setting [2], the 50% degradation concentration (DC50) was found to be 3.1 nM.

For `O=C1CC[C@H](c2c(F)cc(N3CC(C(=O)N4CCN([C@H]5CC[C@H](n6cc7cc(NC(=O)c8cccc(C(F)(F)F)n8)c(OC8COC8)nc7n6)CC5)CC4)C3)cc2F)C(=O)N1` [Example 98, N-(2-((1r,4r)-4-(4-(1-(4-((R)-2,6-dioxopiperidin-3-yl)-3,5-difluorophenyl)azetidine-3-carbonyl)piperazin-1-yl)cyclohexyl)-6-(oxetan-3-yloxy)-2H-pyrazolo[3,4-b]pyridin-5-yl)-6-(trifluoromethyl)picolinamide], the Dmax under setting [1] amounted to 99%. Also, the 50% degradation concentration (DC50) under setting [2] turned out to be 0.6 nM.

Take `CC(C)(O)c1cc2nn([C@H]3CC[C@H](N4CCN(C5CCN(c6cc(F)c([C@H]7CCC(=O)NC7=O)c(F)c6)CC5)CC4)CC3)cc2cc1NC(=O)c1cccc(C(F)(F)F)n1` [Example 99, N-(2-((1r,4r)-4-(4-(1-(4-((R)-2,6-dioxopiperidin-3-yl)-3,5-difluorophenyl)piperidin-4-yl)piperazin-1-yl)cyclohexyl)-6-(2-hydroxypropan-2-yl)-2H-indazol-5-yl)-6-(trifluoromethyl)picolinamide]: the Dmax under setting [1] is 99%. Also, under setting [2], the 50% degradation concentration (DC50) was found to be 0.4 nM.

For `O=C1CC[C@H](c2c(F)cc(N3CC(C(=O)N4CCN([C@H]5CC[C@H](n6cc(NC(=O)c7coc(-c8ccnc(NCC9CC9)c8)n7)c(C(F)F)n6)CC5)C(=O)C4)C3)cc2F)C(=O)N1` [Example 100, 2-(2-((cyclopropylmethyl)amino)pyridin-4-yl)-N-(3-(difluoromethyl)-1-((1r,4r)-4-(4-(1-(4-((R)-2,6-dioxopiperidin-3-yl)-3,5-difluorophenyl)azetidine-3-carbonyl)-2-oxopiperazin-1-yl)cyclohexyl)-1H-pyrazol-4-yl)oxazole-4-carboxamide], the Dmax under setting [1] came out at 97%. Also, the half-maximal degradation concentration (DC50) under setting [2] was found to be 2.2 nM.

Regarding `O=C1CC[C@H](c2c(F)cc(N3CC[C@@H](C(=O)N4CCN([C@H]5CC[C@H](n6cc(NC(=O)c7coc(-c8ccnc(NCC9CC9)c8)n7)c(C(F)F)n6)CC5)C(=O)C4)C3)cc2F)C(=O)N1` [Example 101, 2-(2-((cyclopropylmethyl)amino)pyridin-4-yl)-N-(3-(difluoromethyl)-1-((1R,4r)-4-(4-((R)-1-(4-((R)-2,6-dioxopiperidin-3-yl)-3,5-difluorophenyl)pyrrolidine-3-carbonyl)-2-oxopiperazin-1-yl)cyclohexyl)-1H-pyrazol-4-yl)oxazole-4-carboxamide], under setting [1], the Dmax turned out to be 97%. Under setting [2], the half-maximal degradation concentration (DC50) was found to be 1.2 nM.

Turning to `CC(C)(O)c1cc2nn([C@H]3CC[C@H](N4CCN(C(=O)C5CN(c6cc(F)c([C@H]7CCC(=O)NC7=O)c(F)c6)C5)CC4)CC3)cc2cc1NC(=O)c1cccn(C2CC2)c1=O` [Example 102, 1-cyclopropyl-N-(2-((1r,4r)-4-(4-(1-(4-((R)-2,6-dioxopiperidin-3-yl)-3,5-difluorophenyl)azetidine-3-carbonyl)piperazin-1-yl)cyclohexyl)-6-(2-hydroxypropan-2-yl)-2H-indazol-5-yl)-2-oxo-1,2-dihydropyridine-3-carboxamide], the Dmax amounted to 61% under setting [3] and 94% under setting [1]. Moreover, the DC50 runs as follows: under setting [4], 12 nM; under setting [2], 2 nM.

For `CC(C)(O)c1cc2nn([C@H]3CC[C@H](N4CCN(C(=O)[C@@H]5CCN(c6cc(F)c([C@H]7CCC(=O)NC7=O)c(F)c6)C5)CC4)CC3)cc2cc1NC(=O)c1cccn(C2CC2)c1=O` [Example 103, 1-cyclopropyl-N-(2-((1R,4r)-4-(4-((R)-1-(4-((R)-2,6-dioxopiperidin-3-yl)-3,5-difluorophenyl)pyrrolidine-3-carbonyl)piperazin-1-yl)cyclohexyl)-6-(2-hydroxypropan-2-yl)-2H-indazol-5-yl)-2-oxo-1,2-dihydropyridine-3-carboxamide], the Dmax under setting [1] was 90%. For the same compound, the DC50 under setting [2] was 4.4 nM.

Regarding `CC(C)(O)c1cc2nn([C@H]3CC[C@H](N4CCN(C[C@H]5CCN(c6cc(F)c(N7CCC(=O)NC7=O)c(F)c6)C5)CC4)CC3)cc2cc1NC(=O)c1ccc2cc(C#N)cnn12` [Example 112, 3-cyano-N-(2-((1R,4r)-4-(4-(((R)-1-(4-(2,4-dioxotetrahydropyrimidin-1(2H)-yl)-3,5-difluorophenyl)pyrrolidin-3-yl)methyl)piperazin-1-yl)cyclohexyl)-6-(2-hydroxypropan-2-yl)-2H-indazol-5-yl)pyrrolo[1,2-b]pyridazine-7-carboxamide], under setting [1], the Dmax came to 96%. Also, under setting [2], the DC50 worked out at 8.6 nM.

With `CC(C)(O)c1cc2nn([C@H]3CC[C@H](N4CCN(C(=O)[C@@H]5CCN(c6cc(F)c(N7CCC(=O)NC7=O)c(F)c6)C5)CC4)CC3)cc2cc1NC(=O)c1cccc(C(F)(F)F)n1` [Example 115, N-(2-((1R,4r)-4-(4-((R)-1-(4-(2,4-dioxotetrahydropyrimidin-1(2H)-yl)-3,5-difluorophenyl)pyrrolidine-3-carbonyl)piperazin-1-yl)cyclohexyl)-6-(2-hydroxypropan-2-yl)-2H-indazol-5-yl)-6-(trifluoromethyl)picolinamide], the Dmax under setting [1] was 96%. In addition, the DC50 under setting [2] was 3.8 nM.

Consider `CC(C)(O)c1cc2nn(C3CCN(C4CCN(C(=O)C5CN(c6cc(F)c([C@H]7CCC(=O)NC7=O)c(F)c6)C5)CC4)CC3)cc2cc1NC(=O)c1cccn(C2CC2)c1=O` [Example 117, (R)-1-cyclopropyl-N-(2-(1′-(1-(4-(2,6-dioxopiperidin-3-yl)-3,5-difluorophenyl)azetidine-3-carbonyl)-[1,4′-bipiperidin]-4-yl)-6-(2-hydroxypropan-2-yl)-2H-indazol-5-yl)-2-oxo-1,2-dihydropyridine-3-carboxamide], for which the Dmax under setting [1] was 78%. Also, the DC50 under setting [2] is 4.2 nM.

For `CC(C)(O)c1cc2nn(C3CCN(C4CCN(C(=O)[C@@H]5CCN(c6cc(F)c([C@H]7CCC(=O)NC7=O)c(F)c6)C5)CC4)CC3)cc2cc1NC(=O)c1cccn(C2CC2)c1=O` [Example 118, 1-cyclopropyl-N-(2-(1′-((R)-1-(4-((R)-2,6-dioxopiperidin-3-yl)-3,5-difluorophenyl)pyrrolidine-3-carbonyl)-[1,4′-bipiperidin]-4-yl)-6-(2-hydroxypropan-2-yl)-2H-indazol-5-yl)-2-oxo-1,2-dihydropyridine-3-carboxamide], the Dmax under setting [1] came to 85%. Moreover, the DC50 under setting [2] was determined as 2.8 nM.

As to `COc1cc2nn([C@H]3CC[C@H](N4CCN(CCc5cc(F)c([C@H]6CCC(=O)NC6=O)c(F)c5)CC4)CC3)cc2cc1NC(=O)c1cccc(C(F)(F)F)n1` [Example 120, N-(2-((1R,4r)-4-(4-(4-((R)-2,6-dioxopiperidin-3-yl)-3,5-difluorophenethyl)piperazin-1-yl)cyclohexyl)-6-methoxy-2H-indazol-5-yl)-6-(trifluoromethyl)picolinamide], the Dmax under setting [1] was determined as 99%. For the same compound, under setting [2], the 50% degradation concentration (DC50) came to 4.2 nM.

Take `CC(C)(O)c1cc2nc(C3CCN(C4CCN(C(=O)[C@@H]5CCN(c6cc(F)c([C@H]7CCC(=O)NC7=O)c(F)c6)C5)CC4)CC3)cn2cc1NC(=O)c1cccc(C(F)(F)F)n1` [Example 127, N-(2-(1′-((R)-1-(4-((R)-2,6-dioxopiperidin-3-yl)-3,5-difluorophenyl)pyrrolidine-3-carbonyl)-[1,4′-bipiperidin]-4-yl)-7-(2-hydroxypropan-2-yl)imidazo[1,2-a]pyridin-6-yl)-6-(trifluoromethyl)picolinamide]: the Dmax under setting [3] amounted to 94% and the Dmax under setting [1] came out at 102%. For the same compound, the DC50 is, setting by setting: under setting [4], 12 nM; under setting [2], 1.3 nM.

As a reminder, the Dmax is the greatest extent of degradation seen. Usually DC50 stands for the concentration at which degradation of the target reaches its halfway point.

(Values after patent publication US20250195513A1, “DEGRADATION OF IRAK4 BY CONJUGATION OF IRAK4 INHIBITORS WITH E3 LIGASE LIGAND AND METHODS OF USE” (BeiGene, Ltd., priority 2022, published 2025).)
